Measured values published in ChEMBL document CHEMBL1201862, “PubChem BioAssay data set” (2004).
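How tested: cells in 96-well plates exposed to compound for 48 hours at five concentrations. Abbreviation: GI50, concentration required for 50% inhibition of growth.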 Activity calls are given as the source filed them. No stated cut-off is given here; in the data, active = GI50 up to about 1.1 µM and inactive = higher.

What was measured:
Test in all cases: inhibition of tumour cell growth, NCI panel, 48 h
Hs-578T = test system: Hs-578T
SF-295 = test system: SF-295
OVCAR-8 = test system: OVCAR-8
SW-620 = test system: SW-620
SF-539 = test system: SF-539
MDA-MB-435 = test system: MDA-MB-435
HT-29 = test system: HT-29
MCF7 = test system: MCF7
EKVX = test system: EKVX
NCI/ADR-RES = test system: NCI/ADR-RES
SK-OV-3 = test system: SK-OV-3
SK-MEL-5 = test system: SK-MEL-5
OVCAR-3 = test system: OVCAR-3
HOP-62 = test system: HOP-62
SF-268 = test system: SF-268
HCT-15 = test system: HCT-15
U-251 = test system: U-251
T47D = test system: T47D
HCC 2998 = test system: HCC 2998
SR = test system: SR

| SMILES | GI50 (Hs-578T) | GI50 (SF-295) | GI50 (OVCAR-8) | GI50 (SW-620) | GI50 (SF-539) | GI50 (MDA-MB-435) | GI50 (HT-29) | GI50 (MCF7) | GI50 (EKVX) | GI50 (NCI/ADR-RES) | GI50 (SK-OV-3) | GI50 (SK-MEL-5) | GI50 (OVCAR-3) | GI50 (HOP-62) | GI50 (SF-268) | GI50 (HCT-15) [µM] | GI50 (U-251) | GI50 (T47D) | GI50 (HCC 2998) | GI50 (SR) |
| --- | --- | --- | --- | --- | --- | --- | --- | --- | --- | --- | --- | --- | --- | --- | --- | --- | --- | --- | --- | --- |
| Cn1c(=O)c2c(nc3sc4ccccc4c(=O)n32)n(C)c1=O | > 100 µM (inactive) | > 100 µM (inactive) | > 100 µM (inactive) | > 100 µM (inactive) | > 100 µM (inactive) | > 100 µM (inactive) | > 100 µM (inactive) | > 100 µM (inactive) | > 100 µM (inactive) | > 100 µM (inactive) | > 100 µM (inactive) | > 100 µM (inactive) | > 100 µM (inactive) | > 100 µM (inactive) | > 100 µM (inactive) | > 100 | > 100 µM (inactive) | > 100 µM (inactive) | > 100 µM (inactive) |  |
| COC(=O)C1=C(OC)C(=P2(c3ccccc3)CC(c3ccccc3)=C2c2ccccc2)C(C(=O)OC)=C1C(=O)OC (configuration not stated) | > 100 µM (inactive) | > 76.6 µM (inactive) | > 95.7 µM (inactive) | 14.6 µM (inactive) | 23.6 µM (inactive) | 40.7 µM (inactive) |  | 7.55 µM (inactive) | > 91.8 µM (inactive) | > 82.4 µM (inactive) | > 61.5 µM (inactive) | 15.7 µM (inactive) | 35 µM (inactive) | > 100 µM (inactive) | > 61.1 µM (inactive) | 11 | 19.9 µM (inactive) | 15.5 µM (inactive) | > 100 µM (inactive) |  |
| CCOC(=O)C1(NC(=O)OC(C)(C)C)CCc2[nH]oc(=O)c2C1 (configuration not stated) | > 100 µM (inactive) | > 100 µM (inactive) | > 100 µM (inactive) | > 100 µM (inactive) | > 100 µM (inactive) | > 100 µM (inactive) | > 100 µM (inactive) | > 100 µM (inactive) | > 100 µM (inactive) | > 100 µM (inactive) | > 100 µM (inactive) | > 100 µM (inactive) | > 100 µM (inactive) | > 100 µM (inactive) |  | > 100 | > 100 µM (inactive) | > 100 µM (inactive) | > 100 µM (inactive) |  |
| OC(CCN1CCN(CCOC(c2ccccc2)c2ccccc2)CC1)c1ccc(Br)cc1 (configuration not stated) | 16 µM (inactive) | 15.6 µM (inactive) | 6.25 µM (inactive) | 16.8 µM (inactive) | 12.5 µM (inactive) | 11 µM (inactive) | 4.27 µM (inactive) | 13.3 µM (inactive) | 11 µM (inactive) | 8.36 µM (inactive) | 13.1 µM (inactive) | 3.53 µM (inactive) | 12.6 µM (inactive) | 15.1 µM (inactive) | 14.8 µM (inactive) | 6.43 | 11.9 µM (inactive) | 10.4 µM (inactive) | 1.73 µM (inactive) |  |
| Cc1cn([C@H]2C[C@H](O)[C@@H](CO)O2)c(=O)nc1N | > 100 µM (inactive) | > 100 µM (inactive) | > 100 µM (inactive) | > 100 µM (inactive) | > 100 µM (inactive) | > 100 µM (inactive) | > 100 µM (inactive) | > 100 µM (inactive) |  | > 100 µM (inactive) | > 100 µM (inactive) | > 100 µM (inactive) | > 100 µM (inactive) | > 100 µM (inactive) | > 100 µM (inactive) | > 100 | > 100 µM (inactive) | > 100 µM (inactive) |  | > 100 µM (inactive) |
| CCOC(=O)c1nc2cc(F)c(F)cc2nc1NCc1cc(OC)c(OC)c(OC)c1 | 50.7 µM (inactive) | > 100 µM (inactive) | > 100 µM (inactive) | > 100 µM (inactive) | > 100 µM (inactive) | > 100 µM (inactive) | > 100 µM (inactive) | > 100 µM (inactive) | > 100 µM (inactive) | > 100 µM (inactive) | > 100 µM (inactive) | 76.7 µM (inactive) | > 100 µM (inactive) | 38.5 µM (inactive) | > 100 µM (inactive) | > 100 | 35.9 µM (inactive) | > 100 µM (inactive) |  | > 100 µM (inactive) |
| COc1cc2c(cc1OCCCOc1cc3c(cc1OC)C(=O)N1CCC[C@H]1CN3)N=C[C@@H]1CCCN1C2=O | 0.267 µM (active) | 0.123 µM (active) | 0.232 µM (active) | 0.127 µM (active) | 0.024 µM (active) | 0.117 µM (active) | 0.244 µM (active) | < 0.0391 µM (active) | 1.89 µM (inactive) | 3.11 µM (inactive) | 0.54 µM (active) | 0.126 µM (active) | 0.0929 µM (active) | 0.0317 µM (active) | 0.0234 µM (active) | 1.86 | 0.0189 µM (active) | 0.0309 µM (active) |  | < 0.01 µM (active) |
| CC(=O)/C(=C\Nc1c(C)n(C)n(C)c1=O)C(=O)c1ccccc1 | > 50 µM (inactive) | > 50 µM (inactive) |  | > 50 µM (inactive) | > 50 µM (inactive) | > 50 µM (inactive) | > 50 µM (inactive) | > 50 µM (inactive) | > 50 µM (inactive) |  | > 50 µM (inactive) | > 50 µM (inactive) | > 50 µM (inactive) | > 50 µM (inactive) | > 50 µM (inactive) | > 50 | > 50 µM (inactive) | > 50 µM (inactive) | > 50 µM (inactive) | > 50 µM (inactive) |
| CC1=NNC(=O)[C@H]2[C@H]1CCC1[C@@H]2CC[C@]2(C)[C@@H](O)CC[C@@H]12 (some centres not stated) | > 100 µM (inactive) | > 100 µM (inactive) | > 100 µM (inactive) | > 100 µM (inactive) | > 100 µM (inactive) | > 100 µM (inactive) | > 100 µM (inactive) | > 100 µM (inactive) | > 100 µM (inactive) | > 100 µM (inactive) | > 100 µM (inactive) | > 100 µM (inactive) | > 100 µM (inactive) | > 100 µM (inactive) | > 100 µM (inactive) | > 100 | > 100 µM (inactive) | > 100 µM (inactive) | > 100 µM (inactive) |  |
| CCSC1=N/C(=C\c2ccc(N(C)C)cc2)C(Cl)=N1 | > 100 µM (inactive) | > 100 µM (inactive) | > 100 µM (inactive) | > 100 µM (inactive) |  | > 100 µM (inactive) | > 100 µM (inactive) | > 100 µM (inactive) | > 100 µM (inactive) | > 100 µM (inactive) | > 100 µM (inactive) | > 100 µM (inactive) | > 100 µM (inactive) | > 100 µM (inactive) | > 100 µM (inactive) | > 100 | > 100 µM (inactive) | 37.7 µM (inactive) | > 100 µM (inactive) |  |
| CC(Nc1ccc(Cl)cc1)c1ccncc1 (configuration not stated) | > 100 µM (inactive) | 72.6 µM (inactive) | > 100 µM (inactive) | > 100 µM (inactive) | > 100 µM (inactive) | > 100 µM (inactive) | 89.5 µM (inactive) | > 100 µM (inactive) | 75.5 µM (inactive) | 61.5 µM (inactive) | 0.0315 µM (active) | 36.6 µM (inactive) | > 100 µM (inactive) | > 100 µM (inactive) | 79.6 µM (inactive) | > 100 | > 100 µM (inactive) | 42.3 µM (inactive) | > 100 µM (inactive) |  |
| Cc1cc2c(O)nc(N)nc2nc1C | > 100 µM (inactive) | > 100 µM (inactive) | > 100 µM (inactive) | > 100 µM (inactive) |  | > 100 µM (inactive) | > 100 µM (inactive) | > 100 µM (inactive) | > 100 µM (inactive) | > 100 µM (inactive) | > 100 µM (inactive) | > 100 µM (inactive) | > 100 µM (inactive) | > 100 µM (inactive) | > 100 µM (inactive) | > 100 | > 100 µM (inactive) | > 100 µM (inactive) |  | > 100 µM (inactive) |
| CCCC[S+]([O-])CCC(N)P(=O)(O)O (configuration not stated) | > 100 µM (inactive) | > 100 µM (inactive) | > 100 µM (inactive) | > 100 µM (inactive) |  | > 100 µM (inactive) | > 100 µM (inactive) | > 100 µM (inactive) | > 100 µM (inactive) | > 100 µM (inactive) | > 100 µM (inactive) | > 100 µM (inactive) | > 100 µM (inactive) | > 100 µM (inactive) | > 100 µM (inactive) | > 100 | > 100 µM (inactive) | > 100 µM (inactive) |  | > 100 µM (inactive) |
| CN(C)C(=S)S [SODIUM DIMETHYLCARBAMODITHIOATE] | > 100 µM (inactive) | > 80.2 µM (inactive) | > 52.5 µM (inactive) | > 59.7 µM (inactive) | > 100 µM (inactive) | > 78 µM (inactive) | 11.5 µM (inactive) | > 100 µM (inactive) | > 94.6 µM (inactive) | > 100 µM (inactive) | > 100 µM (inactive) | 4.14 µM (inactive) | 0.305 µM (active) |  | > 100 µM (inactive) | > 76 | 98.6 µM (inactive) | > 100 µM (inactive) | 20.1 µM (inactive) |  |
| N#Cc1c(N)[nH]c2ccc(Sc3ccccc3)cc12 | 0.449 µM (active) | 0.23 µM (active) | 0.358 µM (active) | 0.121 µM (active) | 0.234 µM (active) | < 0.107 µM (active) | 0.21 µM (active) | < 0.0711 µM (active) | 0.659 µM (active) | 0.101 µM (active) | 0.53 µM (active) | 0.145 µM (active) | 0.215 µM (active) | 0.456 µM (active) | 0.248 µM (active) | 0.098 | 0.297 µM (active) | 0.622 µM (active) | 0.516 µM (active) |  |
